Measurements from patent publication US20090238799A1, “Conditionally-Immortalised Pancreatic Cells” (priority 2005, published 2009).

Key:
[1] = tested on: Telomerase Reverse Transcriptase; experiment: Quantitative PCR of c-myc gene target induction in c-mycERTAM pancreatic cells; format: cell-based, human; conditions: pancreatic cells with c-mycERTAM, FIG. 4
Description: For the PCR of the c-myc-ER and insulin, the titanium taq PCR kit (Clontech laboratories) was used, see Table 2 for the primers used. The PCR reaction conditions were standard. The PCR machine used was GeneAmp PCR system 2700. For analysis, 15 μl of the PCR product was mixed with 5 μl 6× loading dye solution (MBI R0611) and loaded to a gel. A 100 bp DNA ladder (MBI SM0241), 6 μl, containing 3 μg DNA was also loaded. The gel was a 2% agarose gel consisting of: TAE buffer (Invitrogen 15558-034), agarose 2%, ethidium bromide, 267 μg/ml. The gel was run with an electrophoresis power supply E835 (Consort) in a tray HU13 (Jencons) and finally scanned with Fluor-S multimager (Biorad) and analysed with the software Quantity One (Biorad). For quantitative PCR, total RNA is extracted from cell pellets using Trizol (Invitrogen) and RNeasy (Qiagen) spin-columns, prior to reverse-transcription with Superscript II (Invitrogen) to synthesize the first strand of cDNA, which can be used as a template in quantitative PCR. Each gene transcript is detected with a sequence-specific primer-probe combination which accumulates a fluorescent signal during each PCR cycle, detected using a Lightcycler 480 instrument (Roche); the transcription of each gene is normalized against loading-level by assessing a number of house-keeping genes, and expressed as a proportion of a calibrator sample.

[2] = tested on: cells containing the cmyERTam construct; experiment: Proliferation of cells containing the cmyERTam construct; format: cell-based, human; conditions: removal promotes differentiation
Description: Before use, the following growth factors (GF) were added to HPM: 20 ng/ml epidermal growth factor (EGF) and 50 nM Gastrin I. After infection the pancreas cells were cultured in the presence of a supplement: 100 nM 4-Hydroxytamoxifen (4OHT).
Pancreas cells or preselected pancreas cell aggregates were transferred on fibronectin coated or uncoated vessels. Pancreatic cells were infected with virus supernatant and 4-8 μg/ml hexadimethrine bromide. After 8-16 hours of infection, fresh HPM was added and the infection cycle was repeated the next day. The infection was done in 10 cm Petri dishes with cell confluency ranging from 40% to 70%. After infection 4OHT was added to the medium. After 2 days from completed infection the cells were passaged for expansion and/or selection.

4-hydroxytamoxifen [4-OHT]
Telomerase Reverse Transcriptase (hTERT) induction [1]: induction
effect of addition on proliferation [2]: promotes proliferation
